Patent US10695355B2, “Methods for pharmacologic treatment of stroke” (University of Connecticut, priority 2017, dated 2020)

Key:
[1] = tested on: Middle Cerebral Artery occlusion (MCAo) model, male C57B/6 mice; assay: Infarct volume after middle cerebral artery occlusion (MCAo) stroke; assay type: in vivo; settings: 60 min ischemia, 72 h reperfusion, vs vehicle
From the text: (§1) Middle cerebral artery occlusion and bilateral ovariectomy: We induced focal transient cerebral ischemia by a 60-minute right middle cerebral artery occlusion (MCAo) under isoflurane anesthesia followed by reperfusion for either 3, 15, or 30 days. […] The 15- and 30-day time points represent sub-acute and chronic recovery as discussed in the art. Briefly, we performed a midline ventral neck incision and unilateral right MCAo by advancing a 6.0 silicone rubber-coated monofilament (Doccol Corporation, CA) 10-11 mm from the internal carotid artery bifurcation via an external carotid artery stump. We monitored rectal temperatures with a temperature control system (Fine Science Tools, Canada), maintaining the temperature at approximately 37° C. during surgery with an automatic heating pad. We used laser doppler flowmetry (DRT 4/Moor Instruments Ltd, Devon, UK) to measure cerebral blood flow and to confirm occlusion (reduction to 15% of baseline cerebral blood flow) and reperfusion. All animals were fed with wet mash for one week after surgery to ensure adequate nutrition for chronic endpoints, as animals have rearing deficits after stroke. In sham mice, we performed identical surgeries except the suture was not advanced into the internal carotid artery. For the gonadal hormone-mediated outcome study, we ovariectomized (ovxed) female mice two weeks prior to stroke surgery.
Cresyl violet staining for infarct volume and tissue atrophy analysis: We measured tissue infarct (day 3) or tissue atrophy (day 30) after stroke as described in the art. Briefly, we sacrificed the mice after stroke surgery with an overdose of Avertin (250 mg/kg intraperitoneally, i.p). After blood collection by cardiac puncture, we performed trans-cardiac perfusion on the mice using cold phosphate buffered saline (PBS) followed by 4% paraformaldehyde. Brains were then fixed overnight and placed in cryoprotectant (30% sucrose in PBS) for 72 hours before processing. We then sliced the brains into 30-μm free-floating sections using a freezing microtome; every eighth slice was mounted and stained with cresyl violet. […]

[2] = tested on: Middle Cerebral Artery occlusion (MCAo) model, male C57B/6 mice; assay: Neurological deficit (ND) score after MCAo stroke; assay type: in vivo
From the text: as §1
Neurological deficit score: The neurological deficit (ND) score is a crude assessment of post-stroke behavioral recovery. We recorded ND scores, ranging from 0 to 4, at several time points after stroke. Our standard scoring system was as follows: 0, no deficit; 1, forelimb weakness and torso turning to the ipsilateral side when held by the tail; 2, circling to affected side; 3, unable to bear weight on affected side; and 4, no spontaneous locomotor activity or barrel rolling.
Male C57B/6 (2-3 month old; 22-28 g) mice were used in this experiment. The ischemia duration was 60 minutes, with reperfusion for 72 hours. […]

[3] = Solubility in water/PBS; assay type: physicochemical
[4] = tested on: Middle Cerebral Artery occlusion (MCAo) model, male C57B/6 mice; assay: Rotarod test (sensorimotor deficit) after MCAo stroke; assay type: in vivo; settings: 0.5 mg/kg p.o./day for 3 days, first dose 4 hour after stroke; reperfusion 30 days, measured weekly; drug vs vehicle
From the text: (§2) Sensory motor deficit test: We used the open field test (OFT) and rotarod test to measure spontaneous locomotor activity/anxiety-like behavior and motor balance coordination, respectively, at baseline and post-mcao days 2, 7, 14, 21, and 28. As the OFT is a non-stressful test, we performed the OFT prior to the rotarod test, on the same day with one hour difference between tests.
Rotarod test: The rotarod test examines motor coordination in mice. We placed mice on a rotating cylindrical rod accelerating from two to ten rotations per minute, over a span of five minutes. Each subject performed two trials with a 20-minute break between the two trials. We recorded the latency to fall from the rotating rod for each trial (in seconds), and used the mean latency for comparison between groups.
Male C57B/6 (2-3 month old; 22-28 g) mice were used in a Middle Cerebral Artery occlusion (MCAo) model. The ischemia duration was 60 mins and the reperfusion was 30 days. The drug was 5-BDBD- (0.5 mg/kg p.o./day in 1% DMSO and 0.5% methyl cellulose suspension) administered for 3 days. The first dose was given at 4 hour after stroke. Vehicle was 1% DMSO in 0.5% methyl cellulose (n=5 Behaviors were measured weekly using methods described above. (n=7).

[5] = tested on: Middle Cerebral Artery occlusion (MCAo) model, male C57B/6 mice; assay: Open field test (exploratory activity, anxiety-like behavior) after MCAo stroke; assay type: in vivo; settings: first dose 4 hour after stroke, reperfusion 30 days
From the text: as §2
Open field test: The OFT is a common measure of exploratory behavior and general activity in rodents, which can be used both qualitatively and quantitatively. Briefly, we placed mice in a corner of a clear acrylic box (16″×16″) and allowed them to explore the box for ten minutes. We quantified locomotor activity as the total number of beam breaks by a computer-operated, open-field photobeam activity system (San Diego Instruments, San Diego, Calif.). We calculated the percentage of beam breaks in the center zone (16/3″×16/3″) compared to the total as a measure of anxiety-like behavior. Importantly, OFT tests can be administered at several time points to view trends without hindrance by habituation.
Male C57B/6 (2-3 month old; 22-28 g) mice were used in a Middle Cerebral Artery occlusion (MCAo) model. The ischemia duration was 60 mins and the reperfusion was 30 days. […] Vehicle was 1% DMSO in 0.5% methyl cellulose (n=5 Behaviors were measured weekly using methods described above. (n=7).

[6] = 0.5 mg/kg p.o./day for 3 days, first dose 4 hour after stroke, cresyl violet

Structure (SMILES)	stroke infarct size ([1]; 0.5-5 mg/kg in 1xPBS via Alzet mini osmotic pump (SC) for 3 days, TTC)	ND score ([2]; 0.5-5 mg/kg in 1xPBS via Alzet mini osmotic pump (SC) for 3 days, after 3 days of stroke, vs vehicle)	solubility [3]	cortical infarct volume [1, 6]	hemispheric infarct volume [1, 6]	Neurological deficit score measured after 3 days of stroke ([2]; 0.5 mg/kg p.o./day for 3 days, first dose 4 hour after stroke, 60 min ischemia, vs vehicle)	neurological deficit (ND) score ([2]; oral 0.5 mg/kg daily for 5 days beginning on the day of stroke, MCAo 60 minute followed by reperfusion)	rotarod test (test for sensorimotor deficit) [4]	post stroke anxiety (% C/P = % time spent in center/time spent in periphery) ([5]; 0.5 mg/kg p.o./day for 3 days (acute treatment))	total exploratory activity ([5]; 0.5 mg/kg p.o./day for 3 days, drug vs vehicle)
O=C1CC(=O)N(c2cccc(-c3noc(=S)[nH]3)c2)c2ccc3ccccc3c2N1 [NP-1815-PX, 5-[3-(5-thioxo-4H-[1,2,4]oxadiazol-3-yl)phenyl]-1H-naphtho[1,2-b][1,4]diazepine-2,4(3H,5H)-dione]	could reduce	improve	Water/PBS Soluble							
O=C1CN=C(c2cccc(Br)c2)c2oc3ccccc3c2N1 [5-BDBD, 5-(3-Bromophenyl)-1,3-dihydro-2H-Benzofuro[3,2-e]-1,4-diazepin-2-one]				reduces	reduces	reduces	improved significantly	overall significant difference	reduces post stroke anxiety up to a month	similar
